# Several values for one entry are separate records, joined by “and”; a condition that tells them apart may be missing. Equal entries are not always repeated.
# Key:
# [1] = Blood concentration of TRH, LHRH and glucagon after ocular instillation or i.v. injection (Example 5)
# Source text: The concentrations of peptides in the blood were expressed in ng/ml.
# [2] = Effects of absorption enhancers on the penetration of insulin into eyeballs; format: in vivo, New Zealand white rabbits; settings: 1% insulin plus enhancer
# blood glucose = experiment: Effects of absorption enhancers plus insulin on blood glucose concentrations; format: in vivo, New Zealand white rabbits; settings: for % Change in Blood Glucose Concentration / Blood Glucose Concentration After / Blood Glucose Concentration Before: eye drops 1% insulin plus 1% absorption enhancer (Control: 1% insulin only)
# [3] = Effects of absorption enhancers on insulin penetration (blood insulin concentration)
# [4] = Blood enkephalin-equivalent concentration after ocular instillation or i.v. injection; settings: enkephalin 50 ug i.v.
# [5] = Amount of enkephalin-equivalent remaining in eye tissues at the end of 12 hr experiment
# [6] = 1% enhancer with 1% insulin eye drops
molecule,measurement,setting,value
"O=C(O)CNC(=O)C(CS)Cc1ccccc1 (racemic) [D,L-Thiorphan, D,L-thiorphan]",effect of added peptidase inhibitors on systemic absorption of TRH,"[1]; Leu-Leu 4 mM, Bestatin 60 uM, D,L-Thiorphan 0.6 uM",did not significantly enhance the systemic absorption of TRH
"CC(C)C[C@H](NC(=O)CNC(=O)[C@H](Cc1ccc(O)cc1)NC(=O)[C@H](CO)NC(=O)[C@H](Cc1c[nH]c2ccccc12)NC(=O)[C@H](Cc1cnc[nH]1)NC(=O)[C@@H]1CCC(=O)N1)C(=O)N[C@@H](CCCNC(=N)N)C(=O)N1CCC[C@H]1C(=O)NCC(N)=O [LHRH, luteinizing hormone-releasing hormone]",eye-drop concentration sufficient to reach therapeutic effective blood concentration,"[1]; rabbit, in vivo",0.005%
"C[C@H](CCC(=O)NCC(=O)O)[C@H]1CC[C@H]2[C@@H]3[C@H](O)C[C@@H]4C[C@H](O)CC[C@]4(C)[C@H]3C[C@H](O)[C@]12C [Glycocholate, sodium glycocholate]",% of insulin taken up by the eyeball,[2],0.0804%
same,Absolute amount of insulin in the eyeball,[2],200 ng
same,% Change in Blood Glucose Concentration,blood glucose,13%
same,Blood Glucose Concentration After,blood glucose,94 mg % and 94 ± 4 mg %
same,Blood Glucose Concentration Before,blood glucose,108 mg % and 108 ± 7 mg %
"CC(=O)O[C@H]1C[C@@]2(C)[C@@H](C[C@@H](O)[C@H]3[C@@]4(C)CC[C@@H](O)[C@@H](C)[C@@H]4CC[C@@]32C)/C1=C(\CCC=C(C)C)C(=O)O [Fusidic acid, sodium fusidate]",% Change in Blood Glucose Concentration,blood glucose,43%
same,Blood Glucose Concentration After,blood glucose,51 mg % and 51 ± 2 mg %
same,Blood Glucose Concentration Before,blood glucose,90 mg % and 90 ± 3 mg %
polyoxyethylene sorbitan monolaurate [Tween 20],% of insulin taken up by the eyeball,[2],0.0771%
same,Absolute amount of insulin in the eyeball,[2],192 ng
same,effect on blood glucose,blood glucose; [6],a minute reduction in blood glucose concentration
same,% Change in Blood Glucose Concentration,blood glucose,14%
same,Blood Glucose Concentration After,blood glucose,77 ± 9 mg %
same,Blood Glucose Concentration Before,blood glucose,90 ± 3 mg %
same,effect on insulin absorption,[3]; [6],only a slight increase in insulin absorption
same,Insulin peak Concentration,"[3]; eye drops 1% insulin plus 1% absorption enhancer (Control: 1% insulin only), 25 ul",8.8 ± 0.9 ng/mL
"C[N+](C)(C)CCCCCCCCCC[N+](C)(C)C [Decamethonium, decamethonium bromide]",% Change in Blood Glucose Concentration,blood glucose,8%
same,Blood Glucose Concentration After,blood glucose,83 ± 2 mg %
same,Blood Glucose Concentration Before,blood glucose,90 ± 3 mg %
"CC(C)C[C@H](NC(=O)[C@H](Cc1ccccc1)NC(=O)CNC(=O)CNC(=O)[C@@H](N)Cc1ccc(O)cc1)C(=O)O [enkephalin, Leucine-enkephalin (5-L-leucine)]",Tx of blood concentration decline,[4],less than 30 min
same,lowest point of blood concentration,[4]; in 5 hrs,22 ng/mL
same,Residual enkephalin remaining in tissues: % of instilled,"[5]; Choroid, 5% enkephalin",0.0110 ± 0.008%
same,Residual enkephalin remaining in tissues: % of instilled,"[5]; Ciliary-Body, 0.1245% enkephalin",0.0156 ± 0.003%
same,Residual enkephalin remaining in tissues: % of instilled,"[5]; Ciliary-Body, 1% enkephalin",0.0108 ± 0.005%
same,Residual enkephalin remaining in tissues: % of instilled,"[5]; Ciliary-Body, 5% enkephalin",0.0042 ± 0.002%
same,Residual enkephalin remaining in tissues: % of instilled,"[5]; Cornea, 1% enkephalin",0.0601 ± 0.015%
same,Residual enkephalin remaining in tissues: % of instilled,"[5]; Cornea, 5% enkephalin",0.0427 ± 0.012%
same,Residual enkephalin remaining in tissues: % of instilled,"[5]; Iris, 0.1245% enkephalin",0.0252 ± 0.003%
same,Residual enkephalin remaining in tissues: % of instilled,"[5]; Iris, 1% enkephalin",0.0117 ± 0.005%
same,Residual enkephalin remaining in tissues: % of instilled,"[5]; Lens, 0.1245% enkephalin",0.0834 ± 0.013%
same,Residual enkephalin remaining in tissues: % of instilled,"[5]; Retina, 0.1245% enkephalin",0.0118 ± 0.004%
same,Residual enkephalin remaining in tissues: % of instilled,"[5]; Retina, 5% enkephalin",0.0036 ± 0.002%
same,Residual enkephalin remaining in tissues: % of instilled,"[5]; Total, 0.1245% enkephalin",0.3019%
same,Residual enkephalin remaining in tissues: % of instilled,"[5]; Total, 1% enkephalin",0.1713%
same,Residual enkephalin remaining in tissues: % of instilled,"[5]; Total, 5% enkephalin",0.1136%
polyoxyethylene-9-lauryl ether [BL-9],% of insulin taken up by the eyeball,[2],0.5221%
same,Absolute amount of insulin in the eyeball,[2],1305 ng
same,% Change in Blood Glucose Concentration,blood glucose,42%
same,Blood Glucose Concentration After,blood glucose,56 mg % and 56 ± 3 mg %
same,Blood Glucose Concentration Before,blood glucose,97 mg % and 97 ± 2 mg %
"NC(=O)[C@@H]1CCCN1C(=O)[C@H](Cc1cnc[nH]1)NC(=O)[C@@H]1CCC(=O)N1 [TRH, Thyrotrophin-releasing hormone]",plateau blood TRH concentration,"[1]; female, New Zealand white, rabbit, in vivo, topical or ocular, 1 % solution (25 ul)",26 ng/mL
same,eye-drop concentration giving a therapeutic blood concentration of TRH,"[1]; rabbit, in vivo",≥ 0.0025%
same,time remained at the plateau,"[1]; rabbit, in vivo",approximately 10 hrs
same,time to peak,"[1]; rabbit, in vivo",60 min
